{
  "source": "patent US8785447B2",
  "about": "“Use of dopamine D3 receptor ligands for the production of drugs for treating renal function disorders” (AbbVie Deutschland GmbH & Co. KG, priority 2000, dated 2014)",
  "assay_type_in_all_cases": "in vivo, male Sprague-Dawley rats",
  "key": {"[1]": {"test_system": "animal experimental model of diabetic nephropathy (rats with streptozotocin-induced diabetes mellitus)", "assay": "24-hour urine collection (protein by Lowry, albumin by RIA) in streptozotocin-diabetic rats", "details": "for albuminuria / proteinuria: 24-hour urine of conscious diabetic rats after 12 days, via drinking water, S-sulpiride 25 mg/kg/d, D3-A1 5 mg/kg/d; for albuminuria: untreated diabetic 118 vs. time control 23; for proteinuria: untreated diabetic 133 vs. time control 46", "protocol": "(§1) The action of the dopamine D3 antagonists was investigated in an animal experimental model of diabetic nephropathy. Rats in which diabetes mellitus had been induced by administration of streptozotocin developed marked glomerular hyperfiltration within 14 days.\n(§2) 60 mg/kg of streptozotocin, dissolved in citrate buffer (21 mg of citric acid per 1 ml of double-distilled water), were injected intraperitoneally into male Sprague-Dawley rats having a body weight of 180 to 200 g. Diabetes mellitus was regarded as being induced successfully when an evening glucose concentration of at least 180 mg/dl was found in the venous blood after 24 hours. The blood glucose values of the diabetic animals were between 350 and 450 mg/dl. Insulin substitution was thus not necessary. The body weight of the experimental animals increased about 5 g per day. The same volume of citrate buffer was injected intraperitoneally into nondiabetic time control animals (CON). They had blood glucose values of between 90 and 1120 mg/dl.\n(§3) Immediately after successful determination of diabetes mellitus, the animals were accommodated in normal cages with standard feed (Altromin 1320) and mains water ad libitum. By means of different medicinal treatment (administration of the substances via the drinking water), the following four experimental groups were formed: • CON (1) nondiabetic animals without additional treatment (time control) • DM-VHC (2) diabetic animals without additional treatment (diabetic control) • DM-SUL (3) diabetic animals with S-sulpiride treatment (25 mg/kg/d) • DM-D3 (4) diabetic animals with D3-A treatment (D3-A1: D3 receptor antagonist according to Example (7) (5 mg/kg/d); D3-A2: D3 receptor antagonist according to Example (11))\n(§4) The volume of liquid absorbed was recorded daily. Every third day, the body weight and the blood glucose level of the animals were determined. After 12 days, the experimental animals were kept in metabolic cages for 24 hours for urine collection. The protein concentration in the urine was determined according to the standard method described by Lowry. For this, after incubation of the samples with 1 M NaOH a color reaction was induced with Folin reagent (phenol-Ciocalteu's), whose intensity was quantified photometrically. The albumin concentration in the urine was determined by a radioimmunoassay (RIA) specific for albumin. A kit from Biermann (KHAD 2: albumin RIA), was employed which used a polyclonal antibody against human serum albumin (goat) and ^125I-labeled human serum albumin as a tracer. After 14 to 16 days, the animals were anesthetized with thiopental (80 mg/kg) and polyethylene catheters were placed in the jugular vein and the carotid artery and also in the urinary bladder. The glomerular filtration rate (GFR) was determined by means of the renal ^3H-inulin clearance. The mean arterial blood pressure (MAP) and the heart rate (HR) were furthermore recorded during the experiment. At the end of the clearance experiments, the kidneys were removed and subjected to a histopathological examination."}, "[2]": {"test_system": "animal experimental model of diabetic nephropathy (rats with streptozotocin-induced diabetes mellitus)", "assay": "Clearance investigation (renal 3H-inulin clearance, GFR) in anesthetized streptozotocin-diabetic rats", "details": "for glomerular filtration rate (GFR): anesthetized diabetic rats after 14 to 16 days, 3H-inulin clearance, S-sulpiride 25 mg/kg/d, D3-A 5 mg/kg/d, untreated diabetic 1.10 vs. time control 0.83", "protocol": "as §1, §2, §3, §4"}, "[3]": {"test_system": "animal experimental model of diabetic nephropathy (rats with streptozotocin-induced diabetes mellitus)", "assay": "Histopathological examination of the kidneys of streptozotocin-diabetic rats", "details": "for structural intrarenal changes occurring in diabetic nephropathy: comparison of the treatment groups; for glomerular hypertrophy (enlargement of the glomeruli): mean of 20 microscopically measured areas, S-sulpiride 25 mg/kg/d, D3-A1 5 mg/kg/d", "protocol": "as §2, §3, §4"}, "[4]": {"test_system": "animal experimental model of diabetic nephropathy (rats with streptozotocin-induced diabetes mellitus)", "assay": "Kidney wet weight of streptozotocin-diabetic rats", "protocol": "as §2, with “[…]. […]” for “1120 mg/dl.”\nThe volume of liquid absorbed was recorded daily. Every third day, the body weight and the blood glucose level of the animals were determined. […] The protein concentration in the urine was determined according to the standard method described by Lowry. For this, after incubation of the samples with 1 M NaOH a color reaction was induced with Folin reagent (phenol-Ciocalteu's), whose intensity was quantified photometrically. The albumin concentration in the urine was determined by a radioimmunoassay (RIA) specific for albumin. […] The glomerular filtration rate (GFR) was determined by means of the renal ^3H-inulin clearance. […]"}, "[5]": {"details": "diabetic rats, subchronic treatment"}, "[6]": {"details": "diabetic rats, subchronic treatment, 30 mg/kg body weight per day"}},
  "data": [
    {"smiles": "CC(=CCN1CCN(c2cc(C(F)(F)F)nc(C(C)(C)C)n2)CC1)CSc1nnc(N)n1C", "note": "[Example 7]", "values": [
      {"measurement": "albuminuria", "setting": "[1]", "result": 18, "unit": "µg/day"},
      {"measurement": "proteinuria", "setting": "[1]", "result": 113, "unit": "mg/day"},
      {"measurement": "pathological protein and albumin excretion", "setting": "[1]; diabetic rats, comparison of the treatment groups", "result": "markedly reduced"},
      {"measurement": "glomerular filtration rate (GFR)", "setting": "[2]", "result": 0.83, "unit": "mL/min"},
      {"measurement": "renal hemodynamic changes in the course of diabetic nephropathy", "setting": "[2]; [5]", "result": "significant decrease"},
      {"measurement": "structural intrarenal changes occurring in diabetic nephropathy", "setting": "[3]", "result": "abolished"},
      {"measurement": "glomerular hypertrophy (enlargement of the glomeruli)", "setting": "[3]", "result": "not"}
    ]},
    {"smiles": "CC(C)(C)c1nc(N2CCN(CCCSc3nccc(O)n3)CC2)cc(C(F)(F)F)n1.O=C(O)/C=C/C(=O)O", "note": "[Example 11, 2-(3-(4-(2-t-Butyl-6-trifluoromethyl)pyrimidin-4-yl)piperazin-1-yl)propylmercaptopyrimidin-4-ol fumarate]", "values": [
      {"measurement": "diabetes-induced renal hyperperfusion", "setting": "[2]; [6]", "result": "distinctly reduced"},
      {"measurement": "glomerular hyperfiltration", "setting": "[2]; [6]", "result": "distinctly reduced"},
      {"measurement": "structural intrarenal changes occurring in diabetic nephropathy", "setting": "[3]", "result": "abolished"},
      {"measurement": "kidney wet weight", "setting": "[4]; diabetic rats treated with D3-A2, nondiabetic 0.9±0.1, DM-VHC 1.1+0.04", "result": "0.96+0.03 g per 100 g body weight"},
      {"measurement": "incipient renal hypertrophy", "setting": "[4]; [6]", "result": "distinct reduction"}
    ]},
    {"smiles": "CCN1CCC[C@H]1CNC(=O)c1cc(S(N)(=O)=O)ccc1OC", "note": "[sulpiride, S-sulpiride, reference compound]", "values": [
      {"measurement": "albuminuria", "setting": "[1]", "result": 101, "unit": "µg/day"},
      {"measurement": "proteinuria", "setting": "[1]", "result": 178, "unit": "mg/day"},
      {"measurement": "glomerular filtration rate (GFR)", "setting": "[2]", "result": 0.71, "unit": "mL/min"},
      {"measurement": "renal hemodynamic changes in the course of diabetic nephropathy", "setting": "[2]; [5]", "result": "significant decrease"},
      {"measurement": "structural intrarenal changes occurring in diabetic nephropathy", "setting": "[3]", "result": "not"},
      {"measurement": "glomerular hypertrophy (enlargement of the glomeruli)", "setting": "[3]", "result": "likewise to be observed"}
    ]}
  ]
}
